Results reported in PMC10672842, “Anti-Trypanosoma cruzi Activity, Mutagenicity, Hepatocytotoxicity and Nitroreductase Enzyme Evaluation of 3-Nitrotriazole, 2-Nitroimidazole and Triazole Derivatives” (Molecules, 2023).
Read-outs that look alike come from different tables or passages of the source.

How the values were obtained:
S. typhimurium TA98 = experiment: Salmonella reverse mutation assay (Ames test, preincubation), TA98
Description: (§1) The compounds were tested in a reverse mutation assay preincubation protocol in the absence and presence of metabolic activation following standard protocols previously proposed by Maron and Ames. The histidine-dependent (his^−) strains TA98 and TA100 of Salmonella typhimurium were inoculated in 10 mL of Oxoid nutrient broth No. 2 containing 25 µg/mL ampicillin and incubated overnight (15–18 h) at 37 ± 1 °C on an orbital shaker (CT-712, Cientec, Belo Horizonte, MG, Brazil) at 150 rpm, obtaining a concentration of 1–2 × 10^9 cells/mL, confirmed by titration in nutrient agar plates. Briefly, 100 µL of stationary growth cultures of each strain were preincubated for 20 min on an orbital shaker (150 rpm) at 37 ± 1 °C, with 500 µL of 0.2 M phosphate buffer pH 7.4, or 500 µL of S9 mix 4% (Molecular Toxicology, Baltimore, MD, USA), and 100 µL of compound dilutions (0–5000 µM) or controls. DMSO 1% was used as a negative control. […] After incubation, 2 mL of top agar (0.7% agar, 0.5% NaCl, 0.05 mM L-histidine and D-biotin) at 45 ± 3 °C was added and gently mixed. The final mixture was poured on glucose minimal agar plates (1.5% agar, 10 g/L MgSO4·7H2O; 100 g/L of C6H8O7·H2O; 500 g/L K2HPO4; 175 g/L Na(NH4)HPO4·4H2O, 2% glucose) and incubated for 72 h at 37 ± 1 °C. The results were expressed as the mean of revertant colonies (His^+) per plate, standard deviation (SD) and mutagenicity induction fold (IF), calculated as the ratio between the number of colonies in the test group and the number of colonies in the negative control group. Mutagenic potency was calculated as the slope of the linear portion of the concentration–response function and expressed as revertants/µM. All assays were performed in triplicate and repeated at least two times. Statistical analyses were carried out in GraphPad Prism software (version 5.00, GraphPad Software, Boston, MA, USA).

S. typhimurium TA100 = tested on: S. typhimurium TA100
Description: as §1

in vitro = format: cell-based; conditions: human
Description: The Lactate Desidrogenase (LDH) Cytotoxicity Detection Kit^PLUS and the Cell Proliferation Reagent WST-1 assays were performed according to the manufacturer’s protocols. The human hepatocellular carcinoma cell line HepG2 was cultured in T25/175 cm^2 flasks with Dulbecco’s modified Eagle’s medium (DMEM, Gibco BRL) supplemented with 10% fetal bovine serum, 3.7 g/L sodium bicarbonate and 100 µg/mL penicillin–streptomycin under standard conditions (37 ± 1 °C, 95% relative humidity and 5% CO2). Cells were split using trypsin-EDTA (0.05%) with phenol red solution (Gibco BRL) and seeded in a 96-well flat-bottomed plate at a density of 1 × 10^4 cells/well. After overnight incubation, the cells were washed with 1X PBS, and the medium was replaced with different compound dilutions (0–5000 µM) in fresh medium (100 µL) followed by 24 h of incubation. DMSO 1% was used as the negative control, and Triton X-100 4% was used as the positive control. For the LDH assay, after treatment, 50 µL of supernatant from each well was transferred to a 96-well flat-bottomed plate, and 50 µL of freshly prepared reaction mixture was added to each well. After 10 min of incubation in the dark at room temperature, 25 µL of stop solution was added to each well, and the absorbance was measured at 492 nm on a microplate reader (Polaris, Celer, MG, Brazil). For the WST-1 assay, after exposure, the supernatant was replaced by 100 µL of WST-1 2% in fresh medium and incubated for 3 h in the dark under standard conditions. The absorbance was measured at 440 nm. […] For cytotoxicity assays, significant differences between the groups were analyzed by one-way ANOVA and Tukey’s post hoc tests (p < 0.01).

Which results are given for O=[N+]([O-])c1ncn(CC(O)c2ccc(F)cc2F)n1 (centres unmarked) [Compound 8, 1-(2,4-Difluorophenyl)-2-(3-nitro-1H-1,2,4-triazol-1-yl)ethanol]?
IF (induction factor) (S. typhimurium TA98; TA98, +S9, 0.5 µM): 1.0; revertant His+ colonies, mean ± SD (S. typhimurium TA98; TA98, +S9, 0.5 µM): 24 ± 2; IF (induction factor) (S. typhimurium TA98; TA98, +S9, 5 µM): 1.0; revertant His+ colonies, mean ± SD (S. typhimurium TA98; TA98, +S9, 5 µM): 24 ± 7; IF (induction factor) (S. typhimurium TA98; TA98, +S9, 50 µM): 1.0; revertant His+ colonies, mean ± SD (S. typhimurium TA98; TA98, +S9, 50 µM): 23 ± 3; IF (induction factor) (S. typhimurium TA98; TA98, +S9, 500 µM): 1.0; revertant His+ colonies, mean ± SD (S. typhimurium TA98; TA98, +S9, 500 µM): 24 ± 5; IF (induction factor) (S. typhimurium TA98; TA98, +S9, 5000 µM): 1.1; revertant His+ colonies, mean ± SD (S. typhimurium TA98; TA98, +S9, 5000 µM): 26 ± 1; Mutagenicity in the Ames test (verdict) (S. typhimurium TA98; TA98, absence or presence of metabolic activation): not mutagenic; IF (induction factor) (S. typhimurium TA98; TA98, −S9, 0.5 µM): 0.9; revertant His+ colonies, mean ± SD (S. typhimurium TA98; TA98, −S9, 0.5 µM): 23 ± 4; IF (induction factor) (S. typhimurium TA98; TA98, −S9, 5 µM): 0.9; revertant His+ colonies, mean ± SD (S. typhimurium TA98; TA98, −S9, 5 µM): 23 ± 1; IF (induction factor) (S. typhimurium TA98; TA98, −S9, 50 µM): 1.1; revertant His+ colonies, mean ± SD (S. typhimurium TA98; TA98, −S9, 50 µM): 30 ± 3; revertant His+ colonies, mean ± SD (S. typhimurium TA98; TA98, −S9, 500 µM): Cytotoxic; IF (induction factor) (S. typhimurium TA1535; TA1535, +S9, 0.5 µM): 1.0; revertant His+ colonies, mean ± SD (S. typhimurium TA1535; TA1535, +S9, 0.5 µM): 11 ± 1; IF (induction factor) (S. typhimurium TA1535; TA1535, +S9, 5 µM): 1.1; revertant His+ colonies, mean ± SD (S. typhimurium TA1535; TA1535, +S9, 5 µM): 12 ± 4; IF (induction factor) (S. typhimurium TA1535; TA1535, +S9, 50 µM): 1.3; revertant His+ colonies, mean ± SD (S. typhimurium TA1535; TA1535, +S9, 50 µM): 14 ± 4; IF (induction factor) (S. typhimurium TA1535; TA1535, +S9, 500 µM): 1.4; revertant His+ colonies, mean ± SD (S. typhimurium TA1535; TA1535, +S9, 500 µM): 15 ± 5; IF (induction factor) (S. typhimurium TA1535; TA1535, +S9, 5000 µM): 1.4; revertant His+ colonies, mean ± SD (S. typhimurium TA1535; TA1535, +S9, 5000 µM): 15 ± 3; Mutagenicity in the Ames test (verdict) (S. typhimurium TA1535; TA1535, absence or presence of metabolic activation): not mutagenic; IF (induction factor) (S. typhimurium TA1535; TA1535, −S9, 0.5 µM): 1.0; revertant His+ colonies, mean ± SD (S. typhimurium TA1535; TA1535, −S9, 0.5 µM): 21 ± 2; IF (induction factor) (S. typhimurium TA1535; TA1535, −S9, 5 µM): 1.0; revertant His+ colonies, mean ± SD (S. typhimurium TA1535; TA1535, −S9, 5 µM): 26 ± 3; IF (induction factor) (S. typhimurium TA1535; TA1535, −S9, 50 µM): 1.0; revertant His+ colonies, mean ± SD (S. typhimurium TA1535; TA1535, −S9, 50 µM): 23 ± 6; revertant His+ colonies, mean ± SD (S. typhimurium TA1535; TA1535, −S9, 500 µM): Cytotoxic; IF (induction factor) (S. typhimurium TA100; TA100, +S9, 0.5 µM): 1.2; revertant His+ colonies, mean ± SD (S. typhimurium TA100; TA100, +S9, 0.5 µM): 129 ± 21; IF (induction factor) (S. typhimurium TA100; TA100, +S9, 5 µM): 1.2; revertant His+ colonies, mean ± SD (S. typhimurium TA100; TA100, +S9, 5 µM): 128 ± 6; IF (induction factor) (S. typhimurium TA100; TA100, +S9, 50 µM): 1.4; revertant His+ colonies, mean ± SD (S. typhimurium TA100; TA100, +S9, 50 µM): 150 ± 14; IF (induction factor) (S. typhimurium TA100; TA100, +S9, 500 µM): 1.4; revertant His+ colonies, mean ± SD (S. typhimurium TA100; TA100, +S9, 500 µM): 145 ± 8; IF (induction factor) (S. typhimurium TA100; TA100, +S9, 5000 µM): 1.7; revertant His+ colonies, mean ± SD (S. typhimurium TA100; TA100, +S9, 5000 µM): 183 ± 9; Mutagenicity in the Ames test (verdict) (S. typhimurium TA100; TA100, absence or presence of metabolic activation): not mutagenic; IF (induction factor) (S. typhimurium TA100; TA100, −S9, 0.5 µM): 1.1; revertant His+ colonies, mean ± SD (S. typhimurium TA100; TA100, −S9, 0.5 µM): 77 ± 5; IF (induction factor) (S. typhimurium TA100; TA100, −S9, 5 µM): 1.1; revertant His+ colonies, mean ± SD (S. typhimurium TA100; TA100, −S9, 5 µM): 77 ± 15; IF (induction factor) (S. typhimurium TA100; TA100, −S9, 50 µM): 1.1; revertant His+ colonies, mean ± SD (S. typhimurium TA100; TA100, −S9, 50 µM): 77 ± 13; IF (induction factor) (S. typhimurium TA100; TA100, −S9, 500 µM): 1.3; revertant His+ colonies, mean ± SD (S. typhimurium TA100; TA100, −S9, 500 µM): 91 ± 8; IF (induction factor) (S. typhimurium TA100; TA100, −S9, 5000 µM): 1.5; revertant His+ colonies, mean ± SD (S. typhimurium TA100; TA100, −S9, 5000 µM): 108 ± 10; CC50 at 24 h (in vitro): > 500 µM; CC50 at 48 h (in vitro): 426 ± 66 µM
